The NIST ThermoML archive (doi:10.1016/j.fluid.2008.02.008)
± gives the expanded uncertainty stated by the source.

How the values were obtained:
[1] = refractive index (Na D-line) (dimensionless); details: 298.15 K; 101.33 kPa; Liquid; Standard Abbe refractometry
[2] = 298.15 K, 101.33 kPa, Liquid; for mass density: Pycnometric method; for speed of sound: Sing-around technique in a fixed-path interferometer

Compound | refractive index [1] | mass density [2] [kg/m3] | speed of sound [2] [m/s]
CC(C)CC(C)(C)C [2,2,4-trimethylpentane] | 1.38917 ± 0.00073 | 687.817 ± 0.62 | 1082.6 ± 1
CCC(C)(C)C [2,2-dimethylbutane] | 1.36608 ± 0.00075 | 644.43 ± 0.61 | 999.69 ± 1.3
CC(C)C(C)C [2,3-dimethylbutane] | 1.37275 ± 0.00094 | 658.562 ± 1.3 | 1047.1 ± 3.1
CCCC(C)C [2-methylpentane] | 1.36893 ± 0.00075 | 648.614 ± 0.62 | 1082.6 ± 1.3
CCC(C)CC [3-methylpentane] | 1.37399 ± 0.00075 | 659.806 ± 0.63 | 1072.1 ± 1.3
O=C1CCCN1C1CCCCC1 [N-cyclohexylpyrrolidinone] | 1.4975 ± 0.00082 | 1025.56 ± 1.7 | 1555.7 ± 2.3
CN1CCCC1=O [N-methylpyrrolidone] | 1.46876 ± 0.00075 | 1027.88 ± 1.1 | 1545 ± 1.5
C1CCCCC1 [cyclohexane] | 1.42378 ± 0.00072 | 773.948 ± 0.69 | 1254.9 ± 0.97
C1CCCCCCC1 [cyclooctane] | 1.45624 ± 0.00075 | 830.967 ± 0.82 | 1387.8 ± 1.4
CCCCCCCCCC [decane] | 1.4099 ± 0.00075 | 726.176 ± 0.7 | 1232.5 ± 1.4
CCCCCC [hexane] | 1.37237 ± 0.00075 | 654.961 ± 0.62 | 1077.6 ± 1.3
CCCCCCCC [octane] | 1.39538 ± 0.00073 | 698.638 ± 0.63 | 1170.4 ± 1.1
O [water] | 1.3325 ± 0.00075 | – | –
